Data as given in PubChem BioAssay (NCI).
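48-hour exposure; five concentrations; linearly interpolated endpoints. GI50: concentration for 50% inhibition of growth. TGI: total growth inhibition.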

Legend:
Test in all cases: inhibition of tumour cell growth, NCI panel, 48 h
BT-549 breast = test system: BT-549 breast
DU-145 prostate = test system: DU-145 prostate
EKVX NSCLC = test system: EKVX NSCLC
M14 melanoma = test system: M14 melanoma
MDA-MB-435 = test system: MDA-MB-435
NCI-H226 lung = test system: NCI-H226 lung
OVCAR-3 ovarian = test system: OVCAR-3 ovarian
PC-3 prostate = test system: PC-3 prostate
SF-539 CNS = test system: SF-539 CNS
UACC-62 melanoma = test system: UACC-62 melanoma

SMILES	GI50 (BT-549 breast) [µM]	TGI (BT-549 breast) [µM]	GI50 (DU-145 prostate) [µM]	TGI (DU-145 prostate) [µM]	GI50 (EKVX NSCLC) [µM]	TGI (EKVX NSCLC) [µM]	GI50 (M14 melanoma) [µM]	TGI (M14 melanoma) [µM]	GI50 (MDA-MB-435) [µM]	TGI (MDA-MB-435) [µM]	GI50 (NCI-H226 lung) [µM]	TGI (NCI-H226 lung) [µM]	GI50 (OVCAR-3 ovarian) [µM]	TGI (OVCAR-3 ovarian) [µM]	GI50 (PC-3 prostate) [µM]	TGI (PC-3 prostate) [µM]	GI50 (SF-539 CNS) [µM]	TGI (SF-539 CNS) [µM]	GI50 (UACC-62 melanoma) [µM]	TGI (UACC-62 melanoma) [µM]
COc1cc(/C=N/NC(=O)c2cnn3c2NC(c2ccccc2)C3)ccc1Oc1ccccc1 (stereo not given)	0.864	3.16	1.42	4.84	2.03	14.3	0.761	10.7	0.293	1.43	2.17	7.95	0.346	1.31	0.875	3.59	1.03	2.51	0.888	7.3
O=P(CCCCP(=O)(c1ccccc1)c1ccccc1)(c1ccccc1)c1ccccc1.[Cl][Sn]([Cl])([c]1ccccc1)[c]1ccccc1	1.79	3.86	2	4.52	2.71	7.92	1.77	3.81	1.77	3.91	5.07	11.3	1.61	3.99	2.29	6.04	1.43	3.64	1.59	3.3
Cc1cc(=O)[nH]c2cc3c(c4c(n3Cc3ccc(Cl)cc3Cl)CC(C)(C)CC4=O)c(O)c12	19.6	64.2	46.2	> 100	36.4	> 100	71.3	> 100	57.4	> 100	> 100	> 100	> 100	> 100	> 100	> 100	> 100	> 100	> 100	> 100
C=C1C(=O)O[C@H]2[C@H](OC(C)=O)[C@@H](C)CCC/C(C)=C/CC[C@@]3(C)O[C@@H]3C[C@@H]12		8.76		6.87		8.79		> 40.4		15.1		3.32		16.2		> 47.5		13.9		9.43
O=c1[nH]c(=O)c2cc(C3CC(O)C(CO)O3)ccc2[nH]1 (stereo not given)	> 100	> 100	> 100	> 100	> 100	> 100	> 100	> 100	> 100	> 100	> 100	> 100	> 100	> 100	> 100	> 100	> 100	> 100	> 100	> 100
COc1ccc(NC(=O)COCCOCCNC[C@@H]2C(=O)O[C@H]3[C@H]2CC/C(COC(=O)OC/C2=C/CC[C@@]4(C)O[C@H]4[C@H]4OC(=O)[C@@H](CN(C)C)[C@@H]4CC2)=C\CC[C@@]2(C)O[C@@H]32)c(O)c1C(N)=O	6.19	12.9	7.21	13.7	5.76	14.7	7.22	15.5	5.19	12.3	8.33	16.2	1.47	5.26	11.1	26.9	3.42	9.92	5.11	11.4
C=C(C)[C@@H]1CC[C@]2(C)[C@H](CC=C3[C@@H]4[C@@H](C)[C@H](C)CC[C@]4(C(N)=O)CC[C@]32C)[C@@]1(C)CCC#N	4.4	18	4.41	26.4	5.22	> 100	4.08	23.6	4.36	> 100	5.09	27	3.45	10.7	2.58	21	4.79	16.6	5.69	29
COC(=O)CCC1CCC(c2cc(F)ccc2F)(S(=O)(=O)c2ccc(Cl)cc2)CC1 (stereo not given)	70.6	> 100	> 100	> 100	61.2	> 100	55.4	> 100	88.5	> 100	86.8	> 100	83.7	> 100	30.7	> 100	> 100	> 100	69.4	> 100
C=C1C(=O)O[C@H]2[C@H]1CCC(/C=N/c1ncc(Br)cc1N)=C\CC[C@@]1(C)O[C@@H]21	1.82	6.49	1.25	3.22	2.36	11.8	1.89	5.36	2.29	7.51	2.88	11.7	1.05	2.29	2.26	11.1	2.06	6.82	1.87	4.22
COC(=O)C1CCCN1C(=O)[C@@H]1CCCN1C(=O)[C@H](Cc1c[nH]c2ccccc12)NC(=S)Nc1cc(C(F)(F)F)cc(C(F)(F)F)c1 (stereo not given in full)	2.88	8.03	2.52	6.47	1.91	7.83	2.19	5.23	3.03	12.4	2.26	8.01	2.03	3.85	1.91	5.32	2.43	5.85	1.7	4.08
N#CC1=C(N)Oc2c(sc3c(Br)cccc23)C1c1ccc(Br)cc1 (stereo not given)	1.32	12.7	0.571	2.82	3.31	20.5	0.515	3.5	0.109	0.46	4.28	20.2	0.307	1.15	0.516	6.32	0.793	3.02	0.636	16.5
CC(C)c1c(O)ccc2c1CCC1C(C)(C)CCCC21C (stereo not given)		32.8		28.3		31.7		30.2		38.5		33.6		34.1		31.4		34		28.9
